From US8575135B2 (Gilead Sciences, Inc., priority 2011, dated 2013)
Where two headings read alike, the source gives them in different places.

Assays:
Test in all cases: microbe, parasite or virus in culture
Details in all cases: Hepatitis C virus
[1] = system: stable HCV 1a RLuc replicon cells (genotype 1a H77 replicon); type: cell-based
Procedure: (§1) Evaluation of Cell-Based Anti-HCV Activity:
(§2) Antiviral potency (EC50) was determined using a Renilla luciferase (RLuc)-based HCV replicon reporter assay. […] To perform the assay for genotype 2a (with M31 present in NS5A) or 2b, NS5A chimeric genotype 2a JFH-1 replicons that encodes a RLuc-Neo reporter and either genotype 2a J6 strain NS5A gene or genotype 2b MD2b-1 strain NS5A gene (both with M31 present) respectively, were either transiently transfected (t) into Huh-Lunet cells or were established as stably replicating replicon cells (s) is provided. Either cells were dispensed into 384-well plates for EC50 assays. To perform the assay for genotype 3 and 4, NS5A chimeric genotype 1b Con1 replicons that encodes a Pi-RLuc reporter and either genotype 3a S52 strain NS5A gene or genotype 4a ED43 strain NS5A gene respectively, were transiently transfected (t) into Huh-Lunet cells, which were subsequently dispensed into 384-well plates. Compounds were dissolved in DMSO at a concentration of 10 mM and diluted in DMSO either manually or using an automated pipeting instrument. Serially 3-fold diluted compounds were either manually mixed with cell culture media and added to the seeded cells or directly added to the cells using an automated instrument. […] 72 hours later, cells were lysed and Renilla luciferase activity quantified as recommended by the manufacturer (Promega-Madison, Wis.). Non-linear regression was performed to calculate EC50 values.

[2] = system: stable HCV 2a JFH-1 Rluc replicon cells (L31 present in NS5A); type: cell-based
[3] = system: NS5A chimeric genotype 1b Con1 replicon with genotype 4a ED43 strain NS5A gene; type: cell-based, HCV
[4] = system: NS5A chimeric genotype 2a JFH-1 replicon with genotype 2a J6 strain NS5A gene (M31 present); type: cell-based, HCV
Procedure: as §1, §2

[5] = system: NS5A chimeric genotype 1b Con1 replicon with genotype 3a S52 strain NS5A gene; type: cell-based, HCV
Procedure: as §1, §2

[6] = system: NS5A chimeric genotype 2a JFH-1 replicon with genotype 2b MD2b-1 strain NS5A gene (M31 present); type: cell-based, HCV
Procedure: as §1, §2

SMILES	EC50 ([1]; read-out: 1a) [nM]	EC50 ([1]; read-out: 1a (nM)) [nM]	EC50 ([2]; read-out: 2a JFH) [nM]	EC50 ([2]; read-out: 2a JFH (nM)) [nM]	EC50 ([3]; read-out: 4a) [nM]	EC50 ([3]; read-out: 4a (s) (nM)) [nM]	EC50 ([3]; read-out: 4a (t) (nM)) [nM]	EC50 ([4]; read-out: 2a J6) [nM]	EC50 ([4]; read-out: 2a J6 (s) (nM)) [nM]	EC50 ([5]; read-out: 3a) [nM]	EC50 ([5]; read-out: 3a (nM)) [nM]	EC50 ([6]; read-out: 2b) [nM]	EC50 ([6]; read-out: 2b (s) (nM)) [nM]	EC50 ([4]; read-out: 2a Jb (t) (nM)) [nM]	EC50 ([6]; read-out: 2b (t) (nM)) [nM]
COC[C@H]1C[C@@H](c2nc3ccc4cc5c(cc4c3[nH]2)OCc2cc(-c3ccc4nc([C@@H]6CCCN6C(=O)[C@@H](NC(=O)OC)C(C)C)[nH]c4c3)ccc2-5)N(C(=O)[C@@H](NC(=O)OC)C(C)C)C1	< 1	0.003	< 1	0.021	< 1	0.025	0.015	> 5	44.4	1 to 4.99	1.09	> 5	44.4	–	–
COC[C@@H]1C[C@@H](c2nc3c([nH]2)-c2cc4c(cc2CC3)-c2ccc(-c3cnc([C@@H]5CCCN5C(=O)[C@@H](NC(=O)OC)C(C)C)[nH]3)cc2CO4)N(C(=O)[C@@H](NC(=O)OC)C(C)C)C1 [Compound 493]	< 1	0.036	< 1	0.008	< 1	0.018	0.013	> 5	5.04	< 1	0.05	< 1	0.65	–	–
CCC(=O)N[C@@H](C(=O)N1CCC[C@H]1c1ncc(-c2ccc3c(c2)COc2cc4c(ccc5nc([C@@H]6CCCN6C(=O)[C@@H](NC(=O)OC)C(C)C)[nH]c54)cc2-3)[nH]1)c1ccccc1 [Compound 499]	< 1	0.057	< 1	0.008	< 1	0.005	0.021	< 1	0.206	< 1	0.01	< 1	0.04	–	–
COC(=O)N[C@H](C(=O)N1CCC[C@H]1c1ncc(-c2ccc3c(c2)COc2cc4c(cc2-3)CCc2nc([C@@H]3CCCN3C(=O)[C@H](NC(=O)C3CC3)c3ccccc3)[nH]c2-4)[nH]1)C(C)C [Compound 503]	< 1	0.062	< 1	0.012	< 1	0.025	0.028	< 1	0.155	< 1	0.016	< 1	0.037	–	–
COC[C@H]1C[C@@H](c2nc3ccc4cc5c(cc4c3[nH]2)OCc2cc(-c3cnc([C@@H]4CCCN4C(=O)[C@H](NC(=O)C4CC4)c4ccccc4)[nH]3)ccc2-5)N(C(=O)[C@@H](NC(=O)OC)C(C)C)C1 [Compound 510]	< 1	0.021	< 1	0.009	< 1	0.072	0.016	< 1	0.018	< 1	0.008	< 1	0.02	0.007	0.017
COC(=O)N[C@H](C(=O)N1CCC[C@H]1c1ncc(-c2ccc3c(c2)COc2cc4c(ccc5nc([C@@H]6C[C@H]7C[C@H]7N6C(=O)[C@@H](NC(=O)OC)C(C)C)[nH]c54)cc2-3)[nH]1)C(C)C [Compound 518]	< 1	0.005	< 1	0.006	< 1	0.011	0.004	1 to 4.99	2.49	< 1	0.005	< 1	0.643	–	–
COC(=O)N[C@H](C(=O)N1[C@@H](C)CC[C@H]1c1ncc(-c2ccc3c(c2)COc2cc4c(ccc5nc([C@@H]6CCCN6C(=O)[C@H](N)c6ccccc6)[nH]c54)cc2-3)[nH]1)C(C)C [Example NR, Methyl [(2S)-1-{(2S,5S)-2-[5-(2-{(2S)-1-[(2R)-2-amino-2-phenylacetyl]pyrrolidin-2-yl}-1,11-dihydroisochromeno[4′,3′:6,7]naphtho[1,2-d]imidazol-9-yl)-1H-imidazol-2-yl]-5-methylpyrrolidin-1-yl}-3-methyl-1-oxobutan-2-yl]carbamate]	< 1	0.026	< 1	0.006	< 1	0.007	–	< 1	–	–	–	< 1	0.017	0.118	0.017
CC[C@H](C)[C@H](NC(=O)OC)C(=O)N1C[C@@H](COC)C[C@H]1c1ncc(-c2ccc3c(c2)COc2cc4c(ccc5nc([C@@H]6C[C@H](COC)CN6C(=O)[C@@H](NC(=O)OC)[C@@H](C)CC)[nH]c54)cc2-3)[nH]1 [Example OJ]	< 1	0.018	< 1	0.013	< 1	0.017	0.026	< 1	0.502	< 1	0.259	< 1	0.813	–	–
COC(=O)N[C@H](C(=O)N1CCCC1c1ncc(-c2ccc3c(c2)COc2cc4c(ccc5nc([C@@H]6C[C@@H]7CCC[C@@H]7N6C(=O)[C@@H](NC(=O)OC)C(C)C)[nH]c54)cc2-3)[nH]1)C(C)C (stereo partly drawn) [Example PO, methyl {(2S)-1-[2-(5-{2-[(2S,3aS,6aS)-1-{(2S)-2-[(methoxycarbonyl)amino]-3-methylbutanoyl}octahydrocyclopenta[b]pyrrol-2-yl]-1,11-dihydroisochromeno[4′,3′:6,7]naphtho[1,2-d]imidazol-9-yl}-1H-imidazol-2-yl)pyrrolidin-1-yl]-3-methyl-1-oxobutan-2-yl}carbamate]	< 1	0.013	< 1	0.011	< 1	0.013	0.013	1 to 4.99	3.13	< 1	0.012	< 1	0.47	–	–
COC(=O)N[C@H](C(=O)N1C[C@@H](COC(F)F)C[C@H]1c1nc2ccc3cc4c(cc3c2[nH]1)OCc1cc(-c2cnc([C@@H]3CC[C@H](C)N3C(=O)[C@@H](NC(=O)OC)C(C)C)[nH]2)ccc1-4)C(C)C [Example PS, methyl {(2S)-1-[(2S,5S)-2-(5-{2-[(2S,4S)-4-[(difluoromethoxy)methyl]-1-{(2S)-2-[(methoxycarbonyl)amino]-3-methylbutanoyl}pyrrolidin-2-yl]-1,11-dihydroisochromeno[4′,3′:6,7]naphtho[1,2-d]imidazol-9-yl}-1H-imidazol-2-yl)-5-methylpyrrolidin-1-yl]-3-methyl-1-oxobutan-2-yl}carbamate]	< 1	0.005	< 1	0.004	–	–	–	< 1	–	–	44.4	< 1	–	0.077	0.113
